Experimental data as given in PubChem BioAssay (NCI).
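Assay format: 96-well plates, 48-hour exposure. The concentration for full growth arrest is given as TGI.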

Key:
Assay in all cases: inhibition of tumour cell growth, NCI panel, 48 h
HS 578T breast = system: HS 578T breast
OVCAR-4 ovarian = system: OVCAR-4 ovarian
SF-295 CNS = system: SF-295 CNS
A498 renal = system: A498 renal
786-0 renal = system: 786-0 renal
SR leukemia = system: SR leukemia
OVCAR-8 ovarian = system: OVCAR-8 ovarian
SK-MEL-2 melanoma = system: SK-MEL-2 melanoma
NCI-H23 lung = system: NCI-H23 lung
SNB-19 CNS = system: SNB-19 CNS
DU-145 prostate = system: DU-145 prostate
SK-OV-3 ovarian = system: SK-OV-3 ovarian
ACHN renal = system: ACHN renal
NCI-H522 lung = system: NCI-H522 lung
NCI-H226 lung = system: NCI-H226 lung
U251 CNS = system: U251 CNS
NCI-H460 lung = system: NCI-H460 lung
K-562 leukemia = system: K-562 leukemia
HCC-2998 colon = system: HCC-2998 colon
COLO 205 colon = system: COLO 205 colon
SN12C renal = system: SN12C renal
MDA-MB-231 breast = system: MDA-MB-231 breast
MOLT-4 leukemia = system: MOLT-4 leukemia
CCRF-CEM leukemia = system: CCRF-CEM leukemia
UACC-257 melanoma = system: UACC-257 melanoma
T-47D breast = system: T-47D breast
CAKI-1 renal = system: CAKI-1 renal
RPMI-8226 leukemia = system: RPMI-8226 leukemia
M14 melanoma = system: M14 melanoma
UO-31 renal = system: UO-31 renal
SW-620 colon = system: SW-620 colon
LOX IMVI melanoma = system: LOX IMVI melanoma
NCI/ADR-RES ovarian = system: NCI/ADR-RES ovarian
MDA-MB-435 = system: MDA-MB-435
KM12 colon = system: KM12 colon
HCT-116 colon = system: HCT-116 colon
TK-10 renal = system: TK-10 renal
PC-3 prostate = system: PC-3 prostate
BT-549 breast = system: BT-549 breast
SNB-75 CNS = system: SNB-75 CNS
EKVX NSCLC = system: EKVX NSCLC
MCF7 breast = system: MCF7 breast
SF-539 CNS = system: SF-539 CNS
OVCAR-5 ovarian = system: OVCAR-5 ovarian
HCT-15 colon = system: HCT-15 colon
SK-MEL-5 melanoma = system: SK-MEL-5 melanoma
RXF 393 renal = system: RXF 393 renal
IGROV1 ovarian = system: IGROV1 ovarian
MDA-N = system: MDA-N
SF-268 CNS = system: SF-268 CNS
HL-60(TB) leukemia = system: HL-60(TB) leukemia
OVCAR-3 ovarian = system: OVCAR-3 ovarian
HOP-62 NSCLC = system: HOP-62 NSCLC
HOP-92 NSCLC = system: HOP-92 NSCLC
UACC-62 melanoma = system: UACC-62 melanoma
A549 NSCLC = system: A549 NSCLC
SK-MEL-28 melanoma = system: SK-MEL-28 melanoma
HT29 colon = system: HT29 colon
MALME-3M melanoma = system: MALME-3M melanoma

**Q.** For Fc1ccc(/C=C2\COCC3=C2NC(=S)NC3c2ccc(F)cc2)cc1 (centres undefined), which TGI (HS 578T breast) is on record?
**A.** 52.7 µM

**Q.** And the TGI (OVCAR-4 ovarian)?
**A.** 38.5 µM

**Q.** And the TGI (SF-295 CNS)?
**A.** 33.3 µM

**Q.** And the TGI (A498 renal)?
**A.** 30.6 µM

**Q.** What about the TGI (786-0 renal) of the same molecule?
**A.** 34.4 µM

**Q.** And the TGI (SR leukemia)?
**A.** 45 µM

**Q.** What about the TGI (OVCAR-8 ovarian) of the same molecule?
**A.** 30 µM

**Q.** What about the TGI (SK-MEL-2 melanoma) of the same molecule?
**A.** 28.6 µM

**Q.** What about the TGI (NCI-H23 lung) of the same molecule?
**A.** 50.7 µM

**Q.** And the TGI (SNB-19 CNS)?
**A.** 47.7 µM

**Q.** And the TGI (DU-145 prostate)?
**A.** 77.3 µM

**Q.** What about the TGI (SK-OV-3 ovarian) of the same molecule?
**A.** 79.8 µM

**Q.** And the TGI (ACHN renal)?
**A.** > 100 µM

**Q.** What about the TGI (NCI-H522 lung) of the same molecule?
**A.** 34.2 µM

**Q.** What about the TGI (NCI-H226 lung) of the same molecule?
**A.** 45.1 µM

**Q.** And the TGI (U251 CNS)?
**A.** 40.8 µM

**Q.** And the TGI (NCI-H460 lung)?
**A.** 36 µM

**Q.** And the TGI (K-562 leukemia)?
**A.** 44.6 µM

**Q.** What about the TGI (HCC-2998 colon) of the same molecule?
**A.** 32.7 µM

**Q.** What about the TGI (COLO 205 colon) of the same molecule?
**A.** 35.1 µM

**Q.** And the TGI (SN12C renal)?
**A.** 33.3 µM

**Q.** And the TGI (MDA-MB-231 breast)?
**A.** 33.9 µM

**Q.** And the TGI (MOLT-4 leukemia)?
**A.** 54 µM

**Q.** What about the TGI (CCRF-CEM leukemia) of the same molecule?
**A.** 45.7 µM

**Q.** And the TGI (UACC-257 melanoma)?
**A.** 34.2 µM

**Q.** What about the TGI (T-47D breast) of the same molecule?
**A.** 90.1 µM

**Q.** And the TGI (CAKI-1 renal)?
**A.** 76.2 µM

**Q.** What about the TGI (RPMI-8226 leukemia) of the same molecule?
**A.** 44.4 µM

**Q.** And the TGI (M14 melanoma)?
**A.** 30.1 µM

**Q.** And the TGI (UO-31 renal)?
**A.** 33.5 µM

**Q.** What about the TGI (SW-620 colon) of the same molecule?
**A.** 36 µM

**Q.** And the TGI (LOX IMVI melanoma)?
**A.** 38.2 µM

**Q.** And the TGI (NCI/ADR-RES ovarian)?
**A.** 40 µM

**Q.** What about the TGI (MDA-MB-435) of the same molecule?
**A.** 33.3 µM

**Q.** And the TGI (KM12 colon)?
**A.** 63.2 µM

**Q.** And the TGI (HCT-116 colon)?
**A.** 32.1 µM

**Q.** What about the TGI (TK-10 renal) of the same molecule?
**A.** 45.5 µM

**Q.** What about the TGI (PC-3 prostate) of the same molecule?
**A.** 33 µM

**Q.** And the TGI (BT-549 breast)?
**A.** 53.5 µM

**Q.** And the TGI (SNB-75 CNS)?
**A.** 57.6 µM

**Q.** And the TGI (EKVX NSCLC)?
**A.** 42.6 µM

**Q.** And the TGI (MCF7 breast)?
**A.** 39.5 µM

**Q.** What about the TGI (SF-539 CNS) of the same molecule?
**A.** 36.9 µM

**Q.** What about the TGI (OVCAR-5 ovarian) of the same molecule?
**A.** 47 µM

**Q.** And the TGI (HCT-15 colon)?
**A.** 32.1 µM

**Q.** And the TGI (SK-MEL-5 melanoma)?
**A.** 33.5 µM

**Q.** And the TGI (RXF 393 renal)?
**A.** 30.4 µM

**Q.** And the TGI (IGROV1 ovarian)?
**A.** 76.3 µM

**Q.** What about the TGI (MDA-N) of the same molecule?
**A.** 34.2 µM

**Q.** And the TGI (SF-268 CNS)?
**A.** 33.9 µM

**Q.** And the TGI (HL-60(TB) leukemia)?
**A.** 35.4 µM

**Q.** What about the TGI (OVCAR-3 ovarian) of the same molecule?
**A.** 32.6 µM

**Q.** What about the TGI (HOP-62 NSCLC) of the same molecule?
**A.** 31.7 µM

**Q.** What about the TGI (HOP-92 NSCLC) of the same molecule?
**A.** 34 µM

**Q.** And the TGI (UACC-62 melanoma)?
**A.** 32.4 µM

**Q.** What does the source list for COc1cc(OC)c(-n2[nH]c(=O)n(C)c2=O)c(OC)c1?
**A.** TGI (HS 578T breast): > 100 µM; TGI (A549 NSCLC): > 100 µM; TGI (OVCAR-4 ovarian): > 100 µM; TGI (A498 renal): > 100 µM; TGI (786-0 renal): > 100 µM; TGI (SR leukemia): > 100 µM; TGI (OVCAR-8 ovarian): > 100 µM; TGI (SK-MEL-2 melanoma): > 100 µM; TGI (NCI-H23 lung): > 100 µM; TGI (SNB-19 CNS): > 100 µM; TGI (DU-145 prostate): > 100 µM; TGI (SK-OV-3 ovarian): > 100 µM; TGI (NCI-H522 lung): > 100 µM; TGI (SK-MEL-28 melanoma): > 100 µM; TGI (NCI-H226 lung): > 100 µM; TGI (U251 CNS): > 100 µM; TGI (NCI-H460 lung): > 100 µM; TGI (K-562 leukemia): > 100 µM; TGI (HCC-2998 colon): > 100 µM; TGI (COLO 205 colon): > 100 µM; TGI (SN12C renal): > 100 µM; TGI (MDA-MB-231 breast): > 100 µM; TGI (MOLT-4 leukemia): > 100 µM; TGI (CCRF-CEM leukemia): > 100 µM; TGI (UACC-257 melanoma): > 100 µM; TGI (T-47D breast): > 100 µM; TGI (CAKI-1 renal): > 100 µM; TGI (RPMI-8226 leukemia): > 100 µM; TGI (M14 melanoma): > 100 µM; TGI (UO-31 renal): > 100 µM; TGI (SW-620 colon): > 100 µM; TGI (LOX IMVI melanoma): > 100 µM; TGI (NCI/ADR-RES ovarian): > 100 µM; TGI (MDA-MB-435): > 100 µM; TGI (KM12 colon): > 100 µM; TGI (HCT-116 colon): > 100 µM; TGI (TK-10 renal): > 100 µM; TGI (PC-3 prostate): > 100 µM; TGI (BT-549 breast): > 100 µM; TGI (SNB-75 CNS): > 100 µM; TGI (EKVX NSCLC): > 100 µM; TGI (HT29 colon): > 100 µM; TGI (MCF7 breast): > 100 µM; TGI (SF-539 CNS): > 100 µM; TGI (OVCAR-5 ovarian): > 100 µM; TGI (HCT-15 colon): > 100 µM; TGI (RXF 393 renal): > 100 µM; TGI (IGROV1 ovarian): > 100 µM; TGI (MALME-3M melanoma): > 100 µM; TGI (MDA-N): > 100 µM; TGI (SF-268 CNS): > 100 µM; TGI (HL-60(TB) leukemia): > 100 µM; TGI (OVCAR-3 ovarian): > 100 µM; TGI (UACC-62 melanoma): > 100 µM
